Each block holds one compound with its values, some of them ahead of it. Residues, ends and D or L forms follow the SMILES beside them. No end group written: not given here.
Assays:
[1] = Inhibition of hydroxyl radical production by peptides, Cu(II)/ascorbic acid deoxyribose/TBA assay, Example 16; assay type: biochemical
Procedure: The ability of the peptides listed in Table 14 to inhibit the generation of hydroxyl radicals was tested. Hydroxyl radicals were generated by mixing Cu(II) and ascorbic acid. When deoxyribose was added, the hydroxyl radicals, if present, attacked the deoxyribose to produce fragments. Heating the fragments at low pH produced malonaldehyde that, upon the addition of 2-thiobarbituric acid (TBA), yielded a pink chromogen which was measured spectrophotometrically at 532 nm. Thus, absorbance at 532 nm is a measure of the damage to deoxyribose and, therefore, of hydroxyl radical formation.
To perform the assay, (a) 50 μl of 200 μM CuCl2 in water, (b) water or enough of one of the test peptides in water (total volume of 150 μl) to give peptide:copper ratios of 1:4, 1:2, 1:1, 2:1, 4:1, 6:1 and 8:1, and (c) 525 μl buffer (20 mM KH2PO4 buffer, pH 7.4) were added to test tubes. The test tubes were incubated for 15 minutes at room temperature. Then, 25 μl of 20 mM ascorbic acid in buffer and 250 μl of 7.5 mM 2-deoxy-D-ribose in water were added to each test tube, and the test tubes were incubated for 1 hour at 37° C. Finally, 1 ml of 1% (w/v) TBA in 50 mM NaOH and 1 ml of glacial acetic acid were added to each test tube, and the test tubes were incubated in boiling water for 15 minutes. After the test tubes had cooled for 15 minutes, the absorbance at 532 nm was read. The results are presented in attached FIGS. 26A-V.

[2] = Inhibition of hydroxyl radical production, Cu(II)/ascorbic acid deoxyribose/TBA assay, Example 10; assay type: biochemical; conditions: for % Inhibition (decrease in absorbance compared to buffer alone): CuCl2 10 μM; for formation of the pink chromogen: data not shown
Procedure: The ability of the compounds listed above to inhibit the generation of hydroxyl radicals was tested as described in Gutteridge and Wilkins, Biochim. Biophys. Acta, 759:38-41 (1983). Briefly, Cu(II) and ascorbic acid were mixed causing the generation of hydroxyl radicals. Then, deoxyribose was added, and the hydroxyl radicals, if present, attacked the deoxyribose to produce fragments. […]. Thus, absorbance at 532 nm is a measure of the damage to deoxyribose and, therefore, of hydroxyl radical formation.
To perform the assay, CuCl2 in buffer (20 mM KH2PO4 buffer, pH 7.4) and either one of the test compounds in buffer or buffer alone were added to test tubes (final concentration of CuCl2 was 10 μM). The test tubes were incubated for 15 minutes at room temperature. Then, 0.5 mM ascorbic acid in buffer and 1.9 mM 2-deoxy-D-ribose in buffer were added to each test tube, and the test tubes were incubated for 1 hour at 37° C. Finally, 1 ml of 1% (w/v) TBA in 50 mM NaOH and 1 ml of concentrated acetic acid were added to each test tube, and the test tubes were incubated in boiling water for 15 minutes. After the test tubes had cooled for 15 minutes, the absorbance at 532 nm was read.
Histidine and several peptides with histidine in different positions were tested at 1:1 and 2:1 peptide:copper ratios for their ability to inhibit the production of hydroxyl radicals. Also, a peptide having an acetylated aspartic acid (Ac-Asp) as the N-terminal amino acid was also tested. In Table 11, the % inhibition is the percent decrease in absorbance compared to buffer alone divided by the absorbance of the buffer alone.

[3] = tested on: human umbilical vein endothelial cells (HUVEC); test: Copper-induced IL-8 secretion from HUVEC (ELISA); assay type: cell-based; conditions: 25 μM CuCl2, 24 hours; P<0.007
Procedure: Human umbilical vein endothelial cells (HUVEC) (5.0×10^4 cells) were incubated in serum-free and ascorbate-free endothelial cell basal medium-2 (EGM2) medium (BioWhittaker) with ITS supplement with (i) copper, (ii) a tetrapeptide analogue of the high-affinity, N-terminal Cu(II) binding site of human albumin (D-Asp D-Ala D-His D-Lys or d-DAHK), or (iii) both of them (n=3, in duplicate). IL-8 was determined by ELISA (see Example 13). […] Upon visual examination, all cells appeared to be viable at 24 hours.

[4] = Cu(II)/H2O2 hydroxyl radical generation, 2-deoxy-D-ribose degradation (TBA, 532 nm), Example 7; assay type: biochemical; conditions: CuCl2 0.1 mM, H2O2 2.0 mM
Procedure: The ability of the L-tetrapeptide to inhibit the generation of ROS was tested as described in Gutteridge and Wilkins, Biochim. Biophys. Acta, 759, 38-41 (1983) and Cheeseman et al., Biochem. J., 252, 649-653 (1988). Briefly, Cu(II) and H2O2 were mixed causing the generation of hydroxyl radicals in a Fenton-type reaction. The hydroxyl radicals attack the sugar 2-deoxy-D-ribose (the sugar residue of DNA) to produce fragments. Heating the fragments at low pH produces malonaldehyde that, upon the addition of 2-thiobarbituric acid, yields a pink chromogen which can be measured spectrophotometrically at 532 nm. Thus, the absorbance at 532 nm is a measure of the damage to 2-deoxy-D-ribose.
The assay was performed with and without the L-tetrapeptide. […] Clearly, the L-tetrapeptide inhibited the degradation of 2-deoxy-D-ribose by hydroxyl radicals.

[5] = Passage through a model of the blood brain barrier; assay type: in vitro ADME
[6] = peptide:copper ratios of 2:1 or less
[7] = compound:copper 1:1, copper only control 0.767
[8] = compound:copper 2:1, copper only control 0.767
[9] = compound:copper 1:1, copper only control 0.954
[10] = compound:copper 2:1, copper only control 0.954

Compound: Asp Ala His Lys-NH2 (DAHK-NH2)
inhibition of hydroxyl radical production [1, 6]: effectively inhibited hydroxyl radical production

Compound: L-Asp L-Ala L-His L-Lys L-Ser L-Glu L-Val L-Ala L-His L-Arg L-Phe L-Lys (DAHKSEVAHRFK; listed as Homo sapiens)
% Inhibition (decrease in absorbance compared to buffer alone) ([2]; compound:copper 1:1): 13.2%
Absorbance at 532 nm [2, 7]: 0.645
% Inhibition (decrease in absorbance compared to buffer alone) ([2]; compound:copper 2:1): 95.8%
Absorbance at 532 nm [2, 8]: 0.040

Compound: L-His L-Lys L-Ser L-Glu L-Val L-Ala L-His L-Arg L-Phe L-Lys (HKSEVAHRFK; listed as Homo sapiens) [His Lys Ser Glu Val Ala His Arg Phe Lys]
% Inhibition (decrease in absorbance compared to buffer alone) ([2]; compound:copper 1:1): 24.9%
Absorbance at 532 nm [2, 9]: 0.716
% Inhibition (decrease in absorbance compared to buffer alone) ([2]; compound:copper 2:1): 46.6%
Absorbance at 532 nm [2, 10]: 0.509

Compound: [Cl][Cu][Cl] [CuCl2]
IL-8 secretion as compared to controls incubated with water [3]: > 5.5 fold higher

Compound: Catalase
formation of the pink chromogen ([2]; catalase 0-80 nM): prevent the formation of the pink chromogen
formation of the pink chromogen ([2]; catalase with L-Asp L-Ala L-His L-Lys present at tetrapeptide/copper 1:1): prevents the formation of the pink chromogen

Compound: Ser Gly His
inhibition of hydroxyl radical production [1, 6]: effectively inhibited hydroxyl radical production

Compound: Thr Leu His
inhibition of hydroxyl radical production [1, 6]: effectively inhibited hydroxyl radical production

Compound: Acetylated-L-Asp L-Ala L-His L-Lys L-Ser L-Glu L-Val L-Ala L-His L-Arg L-Phe L-Lys (Ac-DAHKSEVAHRFK; listed as Homo sapiens)
% Inhibition (decrease in absorbance compared to buffer alone) ([2]; compound:copper 1:1): 16.9%
Absorbance at 532 nm [2, 7]: 0.633
% Inhibition (decrease in absorbance compared to buffer alone) ([2]; compound:copper 2:1): 27.5%
Absorbance at 532 nm [2, 8]: 0.692

Compound: DAHGMTCARC (cysteine pairing not given here)
inhibition of hydroxyl radical production [1, 6]: effectively inhibited hydroxyl radical production

Percent Inhibition (degradation of 2-deoxy-D-ribose) ([4]; tetrapeptide 0.12 mM (Cu(II):tetrapeptide 1:1.2)): 38%
Percent Inhibition (degradation of 2-deoxy-D-ribose) ([4]; tetrapeptide 0.2 mM (Cu(II):tetrapeptide 1:2)): 73%
Compound: C[C@H](NC(=O)[C@@H](N)CC(=O)O)C(=O)N[C@@H](Cc1c[nH]cn1)C(=O)N[C@@H](CCCCN)C(=O)O [L-Asp L-Ala L-His L-Lys] (H-DAHK-OH)
passage through a model of the blood brain barrier [5]: pass through a model of the blood brain barrier

Compound: Ala Ala His His (AAHH)
inhibition of hydroxyl radical production ([1]; 1:4 peptide:copper ratio): complete inhibition
inhibition of hydroxyl radical production [1, 6]: effectively inhibited hydroxyl radical production

Compound: L-Ala L-His L-Lys L-Ser L-Glu L-Val L-Ala L-His L-Arg L-Phe L-Lys (AHKSEVAHRFK; listed as Homo sapiens)
% Inhibition (decrease in absorbance compared to buffer alone) ([2]; compound:copper 1:1): 11.6%
Absorbance at 532 nm [2, 9]: 0.843
% Inhibition (decrease in absorbance compared to buffer alone) ([2]; compound:copper 2:1): 95.1%
Absorbance at 532 nm [2, 10]: 0.047

Compound: DAHGMTCANC (cysteine pairing not given here)
inhibition of hydroxyl radical production ([1]; 1:1 peptide:copper ratio): complete inhibition
inhibition of hydroxyl radical production [1, 6]: effectively inhibited hydroxyl radical production

Source: US20110263817A1, “METAL-BINDING COMPOUNDS AND USES THEREFOR” (priority 1999, published 2011)
